Reference: patent US20190100534A1, “Cephem Compounds with Latent Reactive Groups” (Gladius Pharmaceuticals, Inc., priority 2017, published 2019)

What was measured:
ENA (URMC-1) = test: MIC determination; format: cell-based, Enterobacter aerogenes; settings: CAMH broth, 20 μM Apo-Transferrin, 37° C., 18 hours
In short: (§1)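 Using an iron-depleting medium (CAMH plus 20 μM apo-transferrin), organisms at 0.5 McFarland faced compound from 64 μg/mL downward in twofold steps. Readout: visual, after 18 h at 37 °C.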

ENA (URMC-2) = test: MIC determination; format: cell-based, Enterobacter aerogenes; settings: CAMH broth, 20 μM Apo-Transferrin, 37° C., 18 hours
In short: as §1

KP(ATCC TEM-10/TEM-12) = format: cell-based, Klebsiella pneumoniae; settings: CAMH broth, 20 μM Apo-Transferrin, 37° C., 18 hours
In short: as §1

[1] = system: Pseudomonas aeruginosa PA-RR-(purple Fre D); test: MIC determination; format: cell-based; settings: CAMH broth, 20 μM Apo-Transferrin, 37° C., 18 hours
In short: as §1

[2] = system: Pseudomonas aeruginosa PA-RR-(980151052); test: MIC determination; format: cell-based; settings: PA-RR-(980151052), CAMH broth, 20 μM Apo-Transferrin, 37° C., 18 hours
In short: as §1

[3] = system: Pseudomonas aeruginosa (PA); test: MIC determination; format: cell-based; settings: PA, CAMH broth, 20 μM Apo-Transferrin, 37° C., 18 hours
In short: as §1

[4] = system: Pseudomonas aeruginosa PA-RR-(G7305586); test: MIC determination; format: cell-based; settings: PA-RR-(G7305586), CAMH broth, 20 μM Apo-Transferrin, 37° C., 18 hours
In short: as §1

[5] = system: Pseudomonas aeruginosa PA (RR-2); test: MIC determination; format: cell-based; settings: PA (RR-2), CAMH broth, 20 μM Apo-Transferrin, 37° C., 18 hours
In short: as §1

[6] = system: Pseudomonas aeruginosa PA (URMC-2); test: MIC determination; format: cell-based; settings: PA (URMC-2), CAMH broth, 20 μM Apo-Transferrin, 37° C., 18 hours
In short: as §1

[7] = system: Pseudomonas aeruginosa PA (RR-1); test: MIC determination; format: cell-based; settings: PA (RR-1), CAMH broth, 20 μM Apo-Transferrin, 37° C., 18 hours
In short: as §1

EC (RR -1) = test: MIC determination; format: cell-based, Escherichia coli; settings: CAMH broth, 20 μM Apo-Transferrin, 37° C., 18 hours
In short: as §1

EC (URMC-2) = test: MIC determination; format: cell-based, Escherichia coli; settings: CAMH broth, 20 μM Apo-Transferrin, 37° C., 18 hours
In short: as §1

EC(ATCC NDM-1) = test: MIC determination; format: cell-based, Escherichia coli; settings: CAMH broth, 20 μM Apo-Transferrin, 37° C., 18 hours
In short: as §1

EC (URMC-3) = test: MIC determination; format: cell-based, Escherichia coli; settings: CAMH broth, 20 μM Apo-Transferrin, 37° C., 18 hours
In short: as §1

EC (RR -2) = test: MIC determination; format: cell-based, Escherichia coli; settings: CAMH broth, 20 μM Apo-Transferrin, 37° C., 18 hours
In short: as §1

EC(KB1 CTX-M-15) = test: MIC determination; format: cell-based, Escherichia coli; settings: CAMH broth, 20 μM Apo-Transferrin, 37° C., 18 hours
In short: as §1

EC (URMC-1) = test: MIC determination; format: cell-based, Escherichia coli; settings: CAMH broth, 20 μM Apo-Transferrin, 37° C., 18 hours
In short: as §1

EC(JMI OXA-48) = test: MIC determination; format: cell-based, Escherichia coli; settings: CAMH broth, 20 μM Apo-Transferrin, 37° C., 18 hours
In short: as §1

EC(KB2 CTX-M-15) = test: MIC determination; format: cell-based, Escherichia coli; settings: CAMH broth, 20 μM Apo-Transferrin, 37° C., 18 hours
In short: as §1

CF (RR -1) = test: MIC determination; format: cell-based, Citrobacter freundii; settings: CAMH broth, 20 μM Apo-Transferrin, 37° C., 18 hours
In short: as §1

KP (URMC-2) = test: MIC determination; format: cell-based, Klebsiella pneumoniae; settings: CAMH broth, 20 μM Apo-Transferrin, 37° C., 18 hours
In short: as §1

KP(JMI KPC-2) = test: MIC determination; format: cell-based, Klebsiella pneumoniae; settings: CAMH broth, 20 μM Apo-Transferrin, 37° C., 18 hours
In short: as §1

KP (RR -1) = test: MIC determination; format: cell-based, Klebsiella pneumoniae; settings: CAMH broth, 20 μM Apo-Transferrin, 37° C., 18 hours
In short: as §1

KP (URMC-1) = test: MIC determination; format: cell-based, Klebsiella pneumoniae; settings: CAMH broth, 20 μM Apo-Transferrin, 37° C., 18 hours
In short: as §1

KP (GJ 5659 TEM-26) = test: MIC determination; format: cell-based, Klebsiella pneumoniae; settings: CAMH broth, 20 μM Apo-Transferrin, 37° C., 18 hours
In short: as §1

KP (ATCC KPC-3) = test: MIC determination; format: cell-based, Klebsiella pneumoniae; settings: CAMH broth, 20 μM Apo-Transferrin, 37° C., 18 hours
In short: as §1

KP(GJ 5934 TEM-26) = test: MIC determination; format: cell-based, Klebsiella pneumoniae; settings: CAMH broth, 20 μM Apo-Transferrin, 37° C., 18 hours
In short: as §1

KP (URMC-3) = test: MIC determination; format: cell-based, Klebsiella pneumoniae; settings: CAMH broth, 20 μM Apo-Transferrin, 37° C., 18 hours
In short: as §1

## CC(C)(O/N=C(\C(=O)N[C@@H]1C(=O)N2C(C(=O)O)=C(C=Cc3ccc(C[n+]4ccc5cc(O)c(O)cc5c4)cc3)CS[C@H]12)c1csc(N)n1)C(=O)O (mixture of isomers) [Compound 435, 2-(4-((E/Z)-2-((6R,7R)-7-((Z)-2-(2-aminothiazol-4-yl)-2-(((2-carboxypropan-2-yl)oxy)imino)acetamido)-2-carboxy-8-oxo-5-thia-1-azabicyclo[4.2.0]oct-2-en-3-yl)vinyl)benzyl)-6,7-dihydroxyisoquinolin-2-ium]
ENA (URMC-1)
  Minimum Inhibitory Concentrations, ENA (URMC-1): 0.13 microgram/mL
ENA (URMC-2)
  Minimum Inhibitory Concentrations, ENA (URMC-2): 0.13 microgram/mL
KP(ATCC TEM-10/TEM-12)
  Minimum Inhibitory Concentrations, KP(ATCC TEM-10/TEM-12): 2 microgram/mL
[1]
  Minimum Inhibitory Concentrations, PA-RR-(purple Fre D): 0.5 microgram/mL
[2]
  Minimum Inhibitory Concentrations, PA-RR-(980151052): 0.13 microgram/mL
[3]
  Minimum Inhibitory Concentrations, PA: ≤0.06 microgram/mL
[4]
  Minimum Inhibitory Concentrations, PA-RR-(G7305586): 0.25 microgram/mL
[5]
  Minimum Inhibitory Concentrations, PA (RR-2): ≤0.06 microgram/mL
[6]
  Minimum Inhibitory Concentrations, PA (URMC-2): 0.25 microgram/mL
[7]
  Minimum Inhibitory Concentrations, PA (RR-1): 0.25 microgram/mL
EC (RR -1)
  Mimimum Inhibitory Concentrations, EC (RR -1): ≤0.06 microgram/mL
EC (URMC-2)
  Minimum Inhibitory Concentrations, EC (URMC-2): ≤0.06 microgram/mL
EC(ATCC NDM-1)
  Minimum Inhibitory Concentrations, EC(ATCC NDM-1): >64 microgram/mL
EC (URMC-3)
  Minimum Inhibitory Concentrations, EC (URMC-3): 0.5 microgram/mL
EC (RR -2)
  Mimimum Inhibitory Concentrations, EC (RR -2): ≤0.06 microgram/mL
EC(KB1 CTX-M-15)
  Minimum Inhibitory Concentrations, EC(KB1 CTX-M-15): 0.13 microgram/mL
EC (URMC-1)
  Minimum Inhibitory Concentrations, EC (URMC-1): ≤0.06 microgram/mL
EC(JMI OXA-48)
  Minimum Inhibitory Concentrations, EC(JMI OXA-48): 0.5 microgram/mL
EC(KB2 CTX-M-15)
  Minimum Inhibitory Concentrations, EC(KB2 CTX-M-15): 0.5 microgram/mL
CF (RR -1)
  Mimimum Inhibitory Concentrations, CF (RR -1): ≤0.06 microgram/mL
KP (URMC-2)
  Minimum Inhibitory Concentrations, KP (URMC-2): ≤0.06 microgram/mL
KP(JMI KPC-2)
  Minimum Inhibitory Concentrations, KP(JMI KPC-2): 4 microgram/mL
KP (RR -1)
  Mimimum Inhibitory Concentrations, KP (RR -1): ≤0.06 microgram/mL
KP (URMC-1)
  Minimum Inhibitory Concentrations, KP (URMC-1): ≤0.06 microgram/mL
KP (GJ 5659 TEM-26)
  Minimum Inhibitory Concentrations, KP (GJ 5659 TEM-26): 0.13 microgram/mL
KP (ATCC KPC-3)
  Minimum Inhibitory Concentrations, KP (ATCC KPC-3): >64 microgram/mL
KP(GJ 5934 TEM-26)
  Minimum Inhibitory Concentrations, KP(GJ 5934 TEM-26): <0.06 microgram/mL
KP (URMC-3)
  Minimum Inhibitory Concentrations, KP (URMC-3): ≤0.06 microgram/mL

## CC(C)(O/N=C(\C(=O)N[C@@H]1C(=O)N2C(C(=O)O)=C(C=Cc3ccc(C[N+]4(C)CCc5ccc(O)c(O)c5C4)cc3)CS[C@H]12)c1csc(N)n1)C(=O)O (mixture of isomers) [Compound 442, 2-(4-((E/Z)-2-((6R,7R)-7-((Z)-2-(2-aminothiazol-4-yl)-2-(((2-carboxypropan-2-yl)oxy)imino)acetamido)-2-carboxy-8-oxo-5-thia-1-azabicyclo[4.2.0]oct-2-en-3 yl)vinyl)benzyl)-7,8-dihydroxy-2-methyl-1,2,3,4-tetrahydroisoquinolin-2-ium]
ENA (URMC-1); Klebsiella aerogenes, read-out: Minimum Inhibitory Concentrations, ENA (URMC-1)
  MIC: 0.5 µg/mL
ENA (URMC-2); Klebsiella aerogenes, read-out: Minimum Inhibitory Concentrations, ENA (URMC-2)
  MIC: 1 µg/mL
KP(ATCC TEM-10/TEM-12)
  Minimum Inhibitory Concentrations, KP(ATCC TEM-10/TEM-12): 4 microgram/mL
[1]; Pseudomonas aeruginosa, read-out: Minimum Inhibitory Concentrations, PA-RR-(purple Fre D)
  MIC: 1 µg/mL
[2]; Pseudomonas aeruginosa, read-out: Minimum Inhibitory Concentrations, PA-RR-(980151052)
  MIC: 2 µg/mL
[3]; Pseudomonas aeruginosa, read-out: Minimum Inhibitory Concentrations, PA
  MIC: 0.13 µg/mL
[4]; Pseudomonas aeruginosa, read-out: Minimum Inhibitory Concentrations, PA-RR-(G7305586)
  MIC: 2 µg/mL
[5]; Pseudomonas aeruginosa, read-out: Minimum Inhibitory Concentrations, PA (RR-2)
  MIC: ≤ 0.06 µg/mL
[6]; Pseudomonas aeruginosa, read-out: Minimum Inhibitory Concentrations, PA (URMC-2)
  MIC: 0.25 µg/mL
[7]; Pseudomonas aeruginosa, read-out: Minimum Inhibitory Concentrations, PA (RR-1)
  MIC: 0.5 µg/mL
EC (RR -1)
  Mimimum Inhibitory Concentrations, EC (RR -1): 0.25 microgram/mL
EC (URMC-2); Escherichia coli, read-out: Minimum Inhibitory Concentrations, EC (URMC-2)
  MIC: 0.13 µg/mL
EC(ATCC NDM-1); Escherichia coli, read-out: Minimum Inhibitory Concentrations, EC(ATCC NDM-1)
  MIC: > 64 µg/mL
EC (URMC-3); Escherichia coli, read-out: Minimum Inhibitory Concentrations, EC (URMC-3)
  MIC: 0.13 µg/mL
EC (RR -2)
  Mimimum Inhibitory Concentrations, EC (RR -2): 0.13 microgram/mL
EC(KB1 CTX-M-15); Escherichia coli, read-out: Minimum Inhibitory Concentrations, EC(KB1 CTX-M-15)
  MIC: 32 µg/mL
EC (URMC-1); Escherichia coli, read-out: Minimum Inhibitory Concentrations, EC (URMC-1)
  MIC: 0.25 µg/mL
EC(JMI OXA-48); Escherichia coli, read-out: Minimum Inhibitory Concentrations, EC(JMI OXA-48)
  MIC: 4 µg/mL
EC(KB2 CTX-M-15); Escherichia coli, read-out: Minimum Inhibitory Concentrations, EC(KB2 CTX-M-15)
  MIC: 32 µg/mL
CF (RR -1)
  Mimimum Inhibitory Concentrations, CF (RR -1): 0.25 microgram/mL
KP (URMC-2)
  Minimum Inhibitory Concentrations, KP (URMC-2): 0.25 microgram/mL
KP(JMI KPC-2)
  Minimum Inhibitory Concentrations, KP(JMI KPC-2): 64 microgram/mL
KP (RR -1)
  Mimimum Inhibitory Concentrations, KP (RR -1): 0.25 microgram/mL
KP (URMC-1)
  Minimum Inhibitory Concentrations, KP (URMC-1): 0.13 microgram/mL
KP (GJ 5659 TEM-26)
  Minimum Inhibitory Concentrations, KP (GJ 5659 TEM-26): 0.5 microgram/mL
KP (ATCC KPC-3)
  Minimum Inhibitory Concentrations, KP (ATCC KPC-3): >64 microgram/mL
KP(GJ 5934 TEM-26)
  Minimum Inhibitory Concentrations, KP(GJ 5934 TEM-26): 0.5 microgram/mL
KP (URMC-3)
  Minimum Inhibitory Concentrations, KP (URMC-3): ≤0.06 microgram/mL
